We go through 20 compounds from US10745382B2 (BRISTOL-MYERS SQUIBB COMPANY, priority 2015, dated 2020).

T1 sequence (Q9NZQ7 with tags, fused parts or gaps): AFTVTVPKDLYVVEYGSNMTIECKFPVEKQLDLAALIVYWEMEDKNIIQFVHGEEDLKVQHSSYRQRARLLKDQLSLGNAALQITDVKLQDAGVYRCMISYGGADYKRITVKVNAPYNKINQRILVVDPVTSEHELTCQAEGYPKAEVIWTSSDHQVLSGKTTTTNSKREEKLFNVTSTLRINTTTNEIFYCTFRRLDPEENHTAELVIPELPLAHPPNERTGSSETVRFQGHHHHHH

The first assay addresses T1, PD-1/PD-L1 (Homo sapiens, UniProt Q9NZQ7).
T1 construct: made in house; host or cells: HEK293T
The assay can be described thus: PD-1/PD-L1 Homogenous Time-Resolved Fluorescence (HTRF) binding assay. The settings on record: PD-L1-His 10 nM, PD-1-Ig 20 nM; numeric IC50; read-out: Range or IC50. Put shortly: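 Read-out is time-resolved FRET between europium cryptate-labelled anti-Ig (1 nM final) and APC-labelled anti-His (20 nM final), both dispensed onto the binding mix. Assay buffer: dPBS containing 0.1% bovine serum albumin and 0.05% Tween-20.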
Background: TR-FRET usually uses a lanthanide donor and a delayed reading to cut background.
The IC50 is the concentration at which inhibition is half-maximal. As for `CCN(CCCOc1cccc(-c2cccc(COc3cc(OCc4cncc(C#N)c4)c(CN(CC)C[C@H](O)CO)cc3Cl)c2C)c1Cl)C[C@H](O)CO` [Example 2075, 5-((4-chloro-5-((2′-chloro-3′-(3-(((S)-2,3-dihydroxypropyl)(ethyl)amino)propoxy)-2-methyl-[1,1′-biphenyl]-3-yl)methoxy)-2-((((S)-2,3-dihydroxypropyl)(ethyl)amino)methyl)phenoxy)methyl)nicotinonitrile], the half-maximal inhibitory concentration (IC50) was 5 nM.
Still for that read-out and setting: the result for `Cc1c(COc2cc(OCc3cncc(C#N)c3)c(CN3CCCC[C@H]3C(=O)O)cc2Cl)cccc1-c1cccc(OCC(O)CO)c1Cl` (stereo partly drawn) [Example 2083, (2S)-1-(5-chloro-4-((2′-chloro-3′-(2,3-dihydroxypropoxy)-2-methyl-[1,1′-biphenyl]-3-yl)methoxy)-2-((5-cyanopyridin-3-yl)methoxy)benzyl)piperidine-2-carboxylic Acid] reads 4 nM.

Staying with this assay, now noted: PD-L1-His 10 nM, PD-1-Ig 20 nM; value given as range class; read-out: Range or IC50.
Take `C[C@](CO)(NCc1cc(Cl)c(OCc2cccc(-c3cccc(OCCCN4CCC(O)(CO)CC4)c3Cl)c2Cl)cc1OCc1cncc(C#N)c1)C(=O)O` [Example 2065, (R)-2-((5-chloro-2-((5-cyanopyridin-3-yl)methoxy)-4-((2,2′-dichloro-3′-(3-(4-hydroxy-4-(hydroxymethyl)piperidin-1-yl)propoxy)-[1,1′-biphenyl]-3-yl)methoxy)benzyl)amino)-3-hydroxy-2-methylpropanoic Acid]: the IC50 fell in the range of 0.21 to 10 nM.
On the same count and under the same terms, in the case of `CC(CO)(CO)NCc1cc(Cl)c(OCc2cccc(-c3cccc(OCCCN4CC[C@@H](O)C4)c3Cl)c2Cl)cc1OCc1cccc(Cl)c1` [Example 2066, (R)-2-((5-chloro-2-((3-chlorobenzyl)oxy)-4-((2,2′-dichloro-3′-(3-(3-hydroxypyrrolidin-1-yl)propoxy)-[1,1′-biphenyl]-3-yl)methoxy)benzyl)amino)-2-methylpropane-1,3-diol] it was 0.21 to 10 nM; in that of `Cc1c(COc2cc(OCc3cncc(C#N)c3)c(CNC(C)(C)CO)cc2Cl)cccc1-c1cccc(OCCCN2CC[C@@H](O)C2)c1Cl` [Example 2067, (R)-5-((4-chloro-5-((2′-chloro-3′-(3-(3-hydroxypyrrolidin-1-yl)propoxy)-2-methyl-[1,1′-biphenyl]-3-yl)methoxy)-2-(((1-hydroxy-2-methylpropan-2-yl)amino)methyl)phenoxy)methyl)nicotinonitrile], 0.21 to 10 nM.
As to `Cc1c(COc2cc(OCc3cncc(C#N)c3)c(CN(C)CC(C)(C)O)cc2Cl)cccc1-c1cccc(OCCCN2CC[C@@H](O)C2)c1Cl` [Example 2068, (R)-5-((4-chloro-5-((2′-chloro-3′-(3-(3-hydroxypyrrolidin-1-yl)propoxy)-2-methyl-[1,1′-biphenyl]-3-yl)methoxy)-2-(((2-hydroxy-2-methylpropyl)(methyl)amino)methyl)phenoxy)methyl)nicotinonitrile], the IC50 fell in the range of 0.21 to 10 nM.
As to `CC(=O)N[C@H]1CCN(CCCOc2cccc(-c3cccc(COc4cc(OCc5cncc(C#N)c5)c(CNC(CO)CO)cc4Cl)c3C)c2Cl)C1` [Example 2069, (S)—N-(1-(3-((2-chloro-3′-((2-chloro-5-((5-cyanopyridin-3-yl)methoxy)-4-(((1,3-dihydroxypropan-2-yl)amino)methyl)phenoxy)methyl)-2′-methyl-[1,1′-biphenyl]-3-yl)oxy)propyl)pyrrolidin-3-yl)acetamide], the concentration for half-maximal inhibition (IC50) was in the range of 0.21 to 10 nM.
Still for that read-out and setting: in the case of `CC(=O)N[C@H]1CCN(CCCOc2cccc(-c3cccc(COc4cc(OCc5cncc(C#N)c5)c(CN[C@](C)(CO)C(=O)O)cc4Cl)c3Cl)c2Cl)C1` [Example 2070, (R)-2-((4-((3′-(3-((S)-3-acetamidopyrrolidin-1-yl)propoxy)-2,2′-dichloro-[1,1′-biphenyl]-3-yl)methoxy)-5-chloro-2-((5-cyanopyridin-3-yl)methoxy)benzyl)amino)-3-hydroxy-2-methylpropanoic Acid] it was 0.21 to 10 nM; in that of `CC(=O)N[C@H]1CCN(CCCOc2cccc(-c3cccc(COc4cc(OCc5cncc(C#N)c5)c(CN[C@](C)(CO)C(=O)O)cc4Cl)c3C)c2Cl)C1` [Example 2071, (R)-2-((4-((3′-(3-((S)-3-acetamidopyrrolidin-1-yl)propoxy)-2′-chloro-2-methyl-[1,1′-biphenyl]-3-yl)methoxy)-5-chloro-2-((5-cyanopyridin-3-yl)methoxy)benzyl)amino)-3-hydroxy-2-methylpropanoic Acid], 0.21 to 10 nM; in that of `CCN(Cc1cc(Cl)c(OCc2cccc(-c3cccc(OCCCN4CC[C@@H](O)C4)c3Cl)c2C)cc1OCc1cncc(C#N)c1)[C@](C)(CO)C(=O)O` [Example 2072, (R)-2-((5-chloro-4-((2′-chloro-3′-(3-((R)-3-hydroxypyrrolidin-1-yl)propoxy)-2-methyl-[1,1′-biphenyl]-3-yl)methoxy)-2-((5-cyanopyridin-3-yl)methoxy)benzyl)(ethyl)amino)-3-hydroxy-2-methylpropanoic Acid], 0.21 to 10 nM.
With `CC(=O)NC1CCN(CCCOc2cccc(-c3cccc(COc4cc(OCc5cncc(C#N)c5)c(CN(CCC(F)(F)F)C(CO)CO)cc4Cl)c3C)c2Cl)CC1` [Example 2073, N-(1-(3-((2-chloro-3′-((2-chloro-5-((5-cyanopyridin-3-yl)methoxy)-4-(((1,3-dihydroxypropan-2-yl)(3,3,3-trifluoropropyl)amino)methyl)phenoxy)methyl)-2′-methyl-[1,1′-biphenyl]-3-yl)oxy)propyl)piperidin-4-yl)acetamide], the concentration for half-maximal inhibition (IC50) lay within 0.21 to 10 nM.
Same read-out and setting: the result for `Cc1c(COc2cc(OCc3cncc(C#N)c3)c(CN(CCC(F)(F)F)C(CO)CO)cc2Cl)cccc1-c1cccc(OCCCN2CCC(O)(CO)CC2)c1Cl` [Example 2074, 5-((4-chloro-5-((2′-chloro-3′-(3-(4-hydroxy-4-(hydroxymethyl)piperidin-1-yl)propoxy)-2-methyl-[1,1′-biphenyl]-3-yl)methoxy)-2-(((1,3-dihydroxypropan-2-yl)(3,3,3-trifluoropropyl)amino)methyl)phenoxy)methyl)nicotinonitrile] reads 0.21 to 10 nM; that for `Cc1c(COc2cc(OCc3cncc(C#N)c3)c(CN(C)C(C)(CO)CO)cc2Cl)cccc1-c1cccc(OCCCN2CC[C@@H](O)C2)c1Cl` [Example 2076, (R)-5-((4-chloro-5-((2′-chloro-3′-(3-(3-hydroxypyrrolidin-1-yl)propoxy)-2-methyl-[1,1′-biphenyl]-3-yl)methoxy)-2-(((1,3-dihydroxy-2-methylpropan-2-yl)(methyl)amino)methyl)phenoxy)methyl)nicotinonitrile], 0.21 to 10 nM.
Still for that read-out and setting: the result for `Cc1c(COc2cc(OCc3cncc(C#N)c3)c(CNC3(CO)CC3)cc2Cl)cccc1-c1cccc(OCCCN2CC[C@@H](O)C2)c1Cl` [Example 2077, (R)-5-((4-chloro-5-((2′-chloro-3′-(3-(3-hydroxypyrrolidin-1-yl)propoxy)-2-methyl-[1,1′-biphenyl]-3-yl)methoxy)-2-(((1-(hydroxymethyl)cyclopropyl)amino)methyl)phenoxy)methyl)nicotinonitrile] reads 0.21 to 10 nM.
The same measure, in the same setting: the result for `C[C@](CO)(NCc1cc(Cl)c(OCc2cccc(-c3cccc(OCCCN4C[C@@H](O)[C@H](O)C4)c3Cl)c2Cl)cc1OCc1cncc(C#N)c1)C(=O)O` [Example 2078, (R)-2-((5-chloro-2-((5-cyanopyridin-3-yl)methoxy)-4-((2,2′-dichloro-3′-(3-((3R,4R)-3,4-dihydroxypyrrolidin-1-yl)propoxy)-[1,1′-biphenyl]-3-yl)methoxy)benzyl)amino)-3-hydroxy-2-methylpropanoic Acid] reads 0.21 to 10 nM; that for `Cc1c(COc2cc(OCc3cncc(C#N)c3)c(CNC(C)(CO)CO)cc2Cl)cccc1-c1cccc(OCC(CO)CO)c1Cl` [Example 2079, 5-((4-chloro-5-((2′-chloro-3′-(3-hydroxy-2-(hydroxymethyl)propoxy)-2-methyl-[1,1′-biphenyl]-3-yl)methoxy)-2-(((1,3-dihydroxy-2-methylpropan-2-yl)amino)methyl)phenoxy)methyl)nicotinonitrile], 0.21 to 10 nM.
Take `Cc1c(COc2cc(OCc3cncc(C#N)c3)c(CNC(C)(CO)CO)cc2Cl)cccc1-c1cccc(OCCC(C)(C)O)c1Cl` [Example 2080, 5-((4-chloro-5-((2′-chloro-3′-(3-hydroxy-3-methylbutoxy)-2-methyl-[1,1′-biphenyl]-3-yl)methoxy)-2-(((1,3-dihydroxy-2-methylpropan-2-yl)amino)methyl)phenoxy)methyl)nicotinonitrile]: the half-maximal inhibitory concentration (IC50) lay within 0.21 to 10 nM.
Same read-out and setting: the result for `Cc1c(COc2cc(OCc3cncc(C#N)c3)c(CNC(C)(CO)CO)cc2Cl)cccc1-c1cccc(OCCc2ccccn2)c1Cl` [Example 2081, 5-((4-chloro-5-((2′-chloro-2-methyl-3′-(2-(pyridin-2-yl)ethoxy)-[1,1′-biphenyl]-3-yl)methoxy)-2-(((1,3-dihydroxy-2-methylpropan-2-yl)amino)methyl)phenoxy)methyl)nicotinonitrile] reads 0.21 to 10 nM.
The same measure, in the same setting: in the case of `Cc1c(COc2cc(OCc3cncc(C#N)c3)c(CNC(C)(CO)CO)cc2Cl)cccc1-c1cccc(OCC(O)CO)c1Cl` (centres unmarked) [Example 2082, 5-((4-chloro-5-((2′-chloro-3′-(2,3-dihydroxypropoxy)-2-methyl-[1,1′-biphenyl]-3-yl)methoxy)-2-(((1,3-dihydroxy-2-methylpropan-2-yl)amino)methyl)phenoxy)methyl)nicotinonitrile] it was 0.21 to 10 nM; in that of `Cc1c(COc2cc(OCc3cncc(C#N)c3)c(CN3CCCC[C@H]3C(=O)O)cc2Cl)cccc1-c1cccc(OCC(CO)(CO)CO)c1Cl` [Example 2084, (S)-1-(5-chloro-4-((2′-chloro-3′-(3-hydroxy-2,2-bis(hydroxymethyl)propoxy)-2-methyl-[1,1′-biphenyl]-3-yl)methoxy)-2-((5-cyanopyridin-3-yl)methoxy)benzyl)piperidine-2-carboxylic Acid], 100 to 2000 nM.
